Here are results for three molecules from patent USH1453H, “N-acetyl-D-glucosamine deacetylase and a process for preparing the same” (priority 1993, dated 1995).

Series [1] concerns the target N-acetyl-D-glucosamine deacetylase (Vibrio cholerae, UniProt O32445). In words: Substrate specificity of the enzyme. The conditions noted are these: substrate 0.2%, 37° C., pH 7.8, one hour. The format is biochemical, Vibrio cholerae non-01 (IFO 15429).
The next series relates to Mucor sp. The conditions noted are these: method using a microorganism belonging to Mucor sp.; cited from earlier work.
The nature of series [2]: Determination of the enzymatic activity (D-glucosamine formed, indole-HCl colorimetry). The format is biochemical. The conditions noted are these: 37° C.; for specific activity: pH 7.8. As for the experimental part: An enzyme solution (0.1 ml) is added to 0.3 ml of 100 mM phosphate buffer (pH 7.8) containing 0.1 ml of 1% N-acetyl-D-glucosamine as a substrate, and the resultant mixture is incubated at 37° C. for 30 minutes. The amount of D-glucosamine formed is determined colorimetrically using indole-HCl according to the method of Z. Dische and E. Borenfreund [J. Biol. Chem., 184:517 (1950)]. One unit of the enzyme is defined as the amount of the enzyme which is capable of producing 1 μmol D-glucosaminefrom N-acetyl-D-glucosamine per minute at 37° C.

A further series in a line: Stable pH of the enzyme. The conditions noted are these: not less than 50% of initial activity retained, determined at 37° C. after incubation at 45° C. for 30 minutes. Format: physicochemical. How it is done: The stable pH wherein not less than 50% of the initial activity of the enzyme is retained, as determined at 37° C. after incubation in a given buffer at 45° C. for 30 minutes, varies depending on the origin of the microorganism used to produce the enzyme, but usually ranges from about 3.0 to 9.0. For example, the stable pH of the enzyme derived from Vibrio sp. is in the range of about 6.0-9.0.

The nature of the next series: Optimal pH of the enzyme. Format: biochemical. The conditions noted are these: at 37° C.; indole-HCl method at pH 5.6-10.8. As for the experimental part: The optimal pH of the enzyme of the present invention varies widely depending on the origin of the microorganism used to produce the enzyme, but usually in the range of about 4.0-9.0. For example, the optimal pH of the enzyme derived from Vibrio sp. is in the range of 7.8-8.2 as determined colorimetrically according to indole-HCl method at pH 5.6-10.8. The buffer solution used at pH 5.6-6.0 is 100 mM CH3 COOH--CH3 COONa, at pH 6.0-9.0, 100 mM […] -Na2 HPO4 is used, and at pH 9.6-10.8, 200 mM Na2 HPO4 -NaOH is used.

N-acetyl-D-glucosamine deacetylase, sequence (O32445 whole entry): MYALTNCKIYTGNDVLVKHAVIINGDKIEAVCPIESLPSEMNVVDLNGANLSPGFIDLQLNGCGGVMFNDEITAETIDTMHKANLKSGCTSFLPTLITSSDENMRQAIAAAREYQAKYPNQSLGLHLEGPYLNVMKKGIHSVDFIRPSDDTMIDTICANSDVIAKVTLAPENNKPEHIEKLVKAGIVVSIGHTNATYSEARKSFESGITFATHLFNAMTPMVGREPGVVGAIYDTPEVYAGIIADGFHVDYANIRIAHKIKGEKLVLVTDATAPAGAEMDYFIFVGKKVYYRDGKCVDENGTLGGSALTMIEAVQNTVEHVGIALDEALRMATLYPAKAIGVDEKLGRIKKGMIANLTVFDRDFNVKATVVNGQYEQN

In the case of `CC(=O)N[C@H]1C(O)O[C@H](CO)[C@@H](O)[C@@H]1O` (stereo partly drawn) [GlcNAc, N-acetyl-D-glucosamine], in series [1], the “Enzymatic Activity” value came to 1.22 Unit/mg and the “formation of D-glucosamine” value is “can be observed”.
(GlcNAc)5: in the series with Mucor sp., the “deacetylated to the extent of” value is on record as 12-14%.
For N-acetyl-D-glucosamine deacetylase, the specific activity in series [2] (listed as enzyme) was 1.22 unit/mg protein; in series [2] (listed as purified enzyme), 1.22 U/mg protein. Besides, the “Spec. Act.” value in series [2] (Table 1, per purification step, pH 7.8, 30 minutes) is recorded as 1.22 Unit/mg. Also, the “Stable pH” value in the series “Stable pH of the enzyme” is 6.0-9.0. In addition, the “Optimal pH” value in “Optimal pH of the enzyme” is recorded as 7.8-8.2.
